{"source": "patent US8389573B2", "about": "“Glycyrrhetinic acid derivatives” (Wellington Laboratories Inc., priority 2006, dated 2013)", "key": {"[1]": {"test_system": "AR mRNA", "test": "Real-time PCR of AR mRNA in LNCaP cells", "type": "cell-based, human", "procedure": "Real-Time PCR: Total RNA was isolated using the RNeasy Protect Mini kit (QIAGEN, Valencia, Calif.) according to the manufacturer's protocol. RNA was eluted with 30 μl of RNasefree water and stored at −80° C. RNA was reverse transcribed using Superscript II reverse transcriptase (Invitrogen) according to the manufacturer's protocol. cDNA was prepared from the LNCaP cell line using a combination of oligodeoxythymidylic acid and dNTP mix (Applied Biosystems, Foster City, Calif.) and Superscript II (Invitrogen). Each PCR was carried out in triplicate in a 25-μl volume using SYBR Green Master mix (Applied Biosystems) for 15 min at 95° C. for initial denaturing, followed by 40 cycles of 95° C. for 30 s and 60° C. for 1 min in the ABI Prism 7700 sequence detection system (Applied Biosystems). The ABI Dissociation Curves software was used after a brief thermal protocol (95° C. 15 s and 60° C. 20 s, followed by a slow ramp to 95° C.) to control for multiple species in each PCR amplification. The comparative CT method was used for relative quantitation of samples. Values for each gene were normalized to expression levels of TATA-binding protein. Primers were purchased from Integrated DNA Technologies (Coralville, Iowa). The sequences of the primers used for reverse transcription-PCR were as follows: AR forward, 5′-GTA CCC TGG CGG CAT GGT-3′ [SEQ ID NO: 1] and AR reverse, 5′-CCCATTTCGCTTTTGACACA-3′ [SEQ ID NO: 2]; PSA forward, 5′-GCATTGAACCAGAGGAGTTCTTG-3′ [SEQ ID NO: 3] and PSA reverse, 5′-TTG CGC ACA CAC GTC ATT G-3′ [SEQ ID NO: 4]; and TATA-binding protein forward, 5′-TGCACAGGAGCCAAGAGTGAA-3′ [SEQ ID NO: 5] and reverse, 5′-CACATCACAGCTCCCCACCA-3′ [SEQ ID NO: 6]."}, "[2]": {"test_system": "PPARγ", "test": "PPARγ-GAL4/pGAL4 transfection and luciferase assay in HT-29 cells", "type": "cell-based", "procedure": "(§1) The Gal4 reporter containing 5× Gal4 response elements (pGal4) was kindly provided by Dr. Marty Mayo (University of North Carolina, Chapel Hill, N.C.). Gal4 DBD-PPARγ construct (gPPARγ) was a gift of Dr. Jennifer L. Oberfield (GlaxoSmithKline Research and Development, Research Triangle Park, N.C.). PPRE3-luc construct contains three tandem PPREs with a minimal TATA sequence in pGL2.\n(§2) Colon Cancer cell lines SW480 and HT29 (1×10^5 cells/well) were plated in 12-well plates in DMEM/Ham's F-12 media supplemented with 2.5% charcoal-stripped FBS. After 16 h, various amounts of DNA [i.e., Gal4Luc (0.4 μg), β-Gal (0.04 μg), Gal4PPAR and PPRE3-Luc (0.04 μg)] were transfected using LipofectAMINE™ reagent (Invitrogen) following the manufacturer's protocol. Five hours after transfection, the transfection mix was replaced with complete media containing either vehicle (DMSO) or the indicated ligand for 20 to 22 h. Cells were then lysed with 100 μl of 1× reporter lysis buffer, and 30 μl of cell extract was used for luciferase and […] assays. A LumiCount™ luminometer (PerkinElmer Life and Analytical Sciences) was used to quantitate luciferase and β-Gal activities, and the luciferase activities were normalized to β-Gal activity. Results are expressed as means±S.E. for at least three replicate determinations for each treatment group"}, "[3]": {"test_system": "LNCaP cells", "test": "Western blot analysis and DNA fragmentation assay in LNCaP cells", "type": "cell-based, human", "procedure": "Cell Proliferation and DNA Fragmentation Assays: LNCaP prostate cancer cells (2×10^4 per well) were added to 12-well plates and allowed to attach for 24 hr. The medium was then changed to DMEM/Ham's F-12 media containing 2.5% charcoal-stripped FBS, and either vehicle (DMSO) or the indicated C-DIMs were added. Fresh medium and indicated compounds were added every 48 hr, and cells were then trypsinized and counted after 2, 4, and 6 days using a Coulter Z1 cell counter (Beckman Coulter, Fullerton, Calif.). Each experiment was done in triplicate, and results are expressed as means±S.E. for each set of three experiments. The DNA fragmentation assay was performed using a BioVision Apoptotic DNA ladder extraction kit (BioVision, Mountain View, Calif.) according to the manufacturer's protocol.\nWestern Blot Analysis: Cells were seeded in DMEM:Ham's F-12 media containing 2.5% charcoal-stripped FBS for 24 hr and then treated with either the vehicle (DMSO) or the indicated compounds. Cells were collected by scraping in 150 μl high salt lysis buffer (50 mM HEPES, 0.5 M NaCl, 1.5 mM MgCl2, 1 mM EGTA, 10% (v/v) glycerol, 1% (v/v) Triton-X-100 and 5 μL/ml of Protease Inhibitor Cocktail (Sigma). The lysates were incubated on ice for 1 hr with intermittent vortexing followed by centrifugation at 20,000 g for 10 min at 4° C. Before electrophoresis, samples were boiled for 3 min at 100° C.; the amount of protein was determined and 60 μg protein applied per lane. Samples were subjected to SDS-PAGE on 10% gel at 120 V for 3 to 4 hr. Proteins were transferred on to polyvinylidene difluoride membrane (PVDF; Bio-Rad, Hercules, Calif.) at 0.9 amp for 90 min at 4° C. in 1× transfer buffer (48 mM Tris-HCl, 39 mM glycine, and 0.025% SDS). The membranes were blocked for 30 min with 5% TBST-Blotto (10 mM Tris-HCl, 150 mM NaCl (pH 8.0), 0.05% Triton X-100 and 5% non-fat dry milk) and incubated in fresh 5% TBST-Blotto with primary antibody overnight with gentle shaking at 4° C. After washing with TBST for 10 min, the PVDF membrane was incubated with secondary antibody (1:5000) in 5% TBST-Blotto for 2-3 hr. The membrane was washed with TBST for 10 min and incubated with 10 ml of chemiluminescence substrate (PerkinElmer Life Sciences) for 1.0 min and exposed to ImageTeK-H medical imaging film (Eastman American X-ray Supply, Inc.)."}, "[4]": {"test_system": "PPARγ", "test": "PPARγ-GAL4/pGAL4 transfection and luciferase assay in SW480 cells", "type": "cell-based", "procedure": "as §1, §2"}}, "data": [{"smiles": "COC(=O)[C@@]1(C)CC[C@]2(C)CC[C@]3(C)C(=CC(=O)[C@@H]4[C@@]5(C)C=C(C#N)C(=O)C(C)(C)[C@@H]5CC[C@]43C)[C@@H]2C1", "note": "[β-CDODA-Me, Methyl 2-cyano-3,11-dioxo-18β-oleana-1,12-dien-30-oate]", "values": [{"measurement": "AR mRNA effects in the presence of cycloheximide (10 μg/ml)", "setting": "[1]", "value": "did not modulate"}, {"measurement": "AR mRNA levels after cotreatment with T007", "setting": "[1]", "value": "did not affect mRNA levels"}, {"measurement": "AR mRNA levels", "setting": "[1]; 12 and 18 hr", "value": "decreases AR mRNA levels"}, {"measurement": "PPARγ transactivation (GAL4-PPARγ/GAL4-Luc)", "setting": "[2]", "value": "induced transactivation"}, {"measurement": "concentrations that decrease AR and PSA expression", "setting": "[3]", "value": "1 to 2.5", "unit": "µM"}, {"measurement": "degradation of cyclin D1 after cotreatment with MG132", "setting": "[3]", "value": "inhibited"}, {"measurement": "downregulation of AR, PSA and FKBP51 proteins after cotreatment with T007 or MG132", "setting": "[3]", "value": "not affected"}, {"measurement": "induced proapoptotic responses after cotreatment with T007", "setting": "[3]", "value": "not inhibited"}, {"measurement": "JNK (p-JNK), PI3K (p-Akt) and MAPK (p-Erk) pathways", "setting": "[3]; 2.5 μM", "value": "induces activation"}, {"measurement": "decreased expression of AR, PSA and FKBP51 with kinase inhibitors", "setting": "[3]; 2.5 μM", "value": "unaffected"}, {"measurement": "induction of EGR-1, ATF-3 and NAG-1", "setting": "[3]; 2.5 μM", "value": "time-dependent induction"}, {"measurement": "p-Erk activation", "setting": "[3]; 2.5 μM", "value": "remained elevated for 24 hr"}, {"measurement": "time of maximal activation of JNK", "setting": "[3]; 2.5 μM", "value": 8, "unit": "h"}, {"measurement": "time of maximal activation of PI3K", "setting": "[3]; 2.5 μM", "value": "8 to 12", "unit": "h"}, {"measurement": "AR, PSA and FKBP51 expression", "setting": "[3]; 1-5 μM, presence or absence of 10 nM DHT", "value": "concentration-dependent decrease"}, {"measurement": "NAG-1 and ATF-3 proapoptotic proteins", "setting": "[3]; 24 hr, 1-5 μM", "value": "induced"}, {"measurement": "cyclin D1 proteins and Rb phosphorylation", "setting": "[3]; 24 hr, 1-5 μM", "value": "decrease"}, {"measurement": "p27 and p21 proteins", "setting": "[3]; 24 hr, 1-5 μM", "value": "concentration-dependent induction"}, {"measurement": "proapoptotic responses accompanying NAG-1/ATF-3 induction", "setting": "[3]; 24 hr, 1-5 μM", "value": "caspase-dependent PARP cleavage, DNA fragmentation, and decreased bcl2 expression"}, {"measurement": "time course of PARP cleavage, AR and Sp1", "setting": "[3]; up to 24 hr", "value": "time-dependent induction of PARP cleavage and a decrease of both AR and Sp1"}, {"measurement": "induced luciferase activity after cotreatment with PPARγ antagonist T007", "setting": "[4]; 1.0, 2.5, 5.0 β-CDODA-Me or 10, 20, 30 μM β-CDODA, 10 μM T007", "value": "inhibited"}, {"measurement": "maximal induction of luciferase activity (PPARγ activation)", "setting": "[4]; 1-5 μM", "value": 18, "unit": "Fold"}]}]}
